Data taken from PMC11374673, “Discovery of isoquinoline sulfonamides as allosteric gyrase inhibitors with activity against fluoroquinolone-resistant bacteria” (Nature Chemistry, 2024).
In brackets after ≈: the same amount, converted by molar mass. Several values for one entry are separate records, joined by “and”; a condition that tells them apart may be missing. Equal values may be shown once. Read-outs that look alike come from different tables or passages of the source.

Legend:
[1] = tested on: 60-resistant (60-r) isolates of E. coli W3110; assay: microbe, parasite or virus in culture; format: cell-based, Escherichia coli; conditions: for MIC: Escherichia coli
Procedure: (§1) MIC was determined by broth microdilution. Single-colony cultures were grown to exponential phase (OD600 of 0.5) aerobically at 37 °C. In case of strains from the Keio collection, 50 µg ml^−1 kanamycin was supplemented to the media to ascertain a homogeneous population. The bacterial suspensions were diluted 100-fold in CAMHB and 50 µl was added to a twofold serial dilution series of test compounds (50 µl per well) in polypropylene 96-well microtitre plates to reach a volume of 100 µl. The plates were sealed with breathable membranes and incubated overnight at 37 °C with constant shaking (600 r.p.m.). The MIC was determined as the lowest concentration at which no visible bacterial growth was observed as compared with the inoculum controls from the median of a minimum of triplicates.
The plates were incubated at 37 °C and checked for growth after 24 and 48 h. […] Nine colonies with an increased MIC were selected for further analysis and stored as glycerol stocks.

[2] = tested on: A. baumannii ATCC BAA747; assay: MIC by broth microdilution; format: cell-based
Procedure: as §1

[3] = tested on: P. aeruginosa ATCC 27853; assay: MIC by broth microdilution; format: cell-based
Procedure: as §1

[4] = tested on: S. aureus ATCC 29213 / ATCC BAA1717; assay: MIC by broth microdilution; format: cell-based
Procedure: as §1

[5] = tested on: E. coli ATCC 25922; assay: MIC by broth microdilution; format: cell-based
Procedure: as §1, with “r.p.m.).” for “r.p.m.). The MIC was determined as the lowest concentration at which no visible bacterial growth was observed as compared with the inoculum controls from the median of a minimum of triplicates.”

[6] = tested on: E. coli W3110; assay: Checkerboard assay with PMBN;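 for checkerboard plate reading, Average values: OD600 read after 20 h incubation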
[7] = Acinetobacter baumannii, ATCCBAA747; read-out: MIC A. baumannii ATCC BAA747
[8] = Pseudomonas aeruginosa, ATCC27853; read-out: MIC P. aeruginosa ATCC 27853
[9] = Staphylococcus aureus; read-out: MIC S. aureus ATCC 29213
[10] = Staphylococcus aureus; read-out: MIC S. aureus ATCC BAA1717
[11] = Escherichia coli, ATCC25922; read-out: MIC E. coli ATCC 25922

## O=S(=O)(NC[C@@H]1CC[C@H](c2ccc(-c3ccc(F)cc3)cc2)N1)c1cccc2cnccc12 [Compound 101]
[1]; E. coli W3110 60-r1
  MIC: > 50 µM
[1]; E. coli W3110 60-r3
  MIC: 6.25 µM (≈ 2.88 µg/mL)
[1]; E. coli W3110 60-r6
  MIC: 3.1 µM (≈ 1.43 µg/mL)
[2]; [7]
  MIC: 25 µM (≈ 11.5 µg/mL)
[3]; [8]
  MIC: > 50 µM
[4]; [9]
  MIC: > 50 µM
[4]; [10]
  MIC: > 50 µM
[5]; [11]
  MIC: 3.1 µM (≈ 1.43 µg/mL)

## O=S(=O)(NCCNCc1ccc(-c2ccc(F)nc2)cc1)c1cccc2cnccc12 [Compound 60]
[1]; E. coli W3110 60-r1
  MIC: > 100 µM
[1]; E. coli W3110 60-r3
  MIC: 100 µM (≈ 43.7 µg/mL)
[1]; E. coli W3110 60-r6
  MIC: > 100 µM
[1]; all nine colonies
  increase in MIC in resistant colonies: at least an eightfold increase in MIC
[2]; [7]
  MIC: > 50 µM
[3]; [8]
  MIC: > 50 µM
[4]; [9]
  MIC: > 50 µM
[4]; [10]
  MIC: > 50 µM
[5]; [11]
  MIC: 12.5 µM (≈ 5.46 µg/mL)

## O=C(O)c1cn(C2CC2)c2cc(N3CCNCC3)c(F)cc2c1=O [CIP, ciprofloxacin]
[1]; E. coli W3110 60-r1
  MIC: 0.024 µM and 0.0078 µg/mL
[1]; E. coli W3110 60-r3
  MIC: 0.024 µM and 0.0078 µg/mL
[1]; E. coli W3110 60-r6
  MIC: 0.024 µM and 0.0078 µg/mL
[2]; Acinetobacter baumannii, ATCCBAA747, read-out: MIC A. baumannii ATCC BAA747
  MIC: 0.755 µM (≈ 0.25 µg/mL)
[3]; Pseudomonas aeruginosa, ATCC27853, read-out: MIC P. aeruginosa ATCC 27853
  MIC: 0.377 µM (≈ 0.125 µg/mL)
[4]; Staphylococcus aureus, read-out: MIC S. aureus ATCC 29213
  MIC: 0.755 µM (≈ 0.25 µg/mL)
[4]; Staphylococcus aureus, read-out: MIC S. aureus ATCC BAA1717
  MIC: > 0.755 µM
[5]; Escherichia coli, ATCC25922, read-out: MIC E. coli ATCC 25922
  MIC: 0.024 µM (≈ 0.00795 µg/mL)
[6]; Ciprofloxacin 1.5625 nM + PMBN 1 µM
  checkerboard plate reading, Average values: 0.8906
[6]; Ciprofloxacin 1.5625 nM + PMBN 2 µM
  checkerboard plate reading, Average values: 0.8911
[6]; Ciprofloxacin 1.5625 nM + PMBN 4 µM
  checkerboard plate reading, Average values: 0.726
[6]; Ciprofloxacin 1.5625 nM + PMBN 8 µM
  checkerboard plate reading, Average values: 0.6303
[6]; Ciprofloxacin 3.125 nM + PMBN 0 µM
  checkerboard plate reading, Average values: 0.9278
[6]; Ciprofloxacin 3.125 nM + PMBN 0.5 µM
  checkerboard plate reading, Average values: 0.8723
[6]; Ciprofloxacin 3.125 nM + PMBN 1 µM
  checkerboard plate reading, Average values: 0.849
[6]; Ciprofloxacin 3.125 nM + PMBN 2 µM
  checkerboard plate reading, Average values: 0.8236
[6]; Ciprofloxacin 3.125 nM + PMBN 4 µM
  checkerboard plate reading, Average values: 0.7354
[6]; Ciprofloxacin 3.125 nM + PMBN 8 µM
  checkerboard plate reading, Average values: 0.666
[6]; Ciprofloxacin 3.125 nM + PMBN 16 µM
  checkerboard plate reading, Average values: 0.8076
[6]; Ciprofloxacin 3.125 nM + PMBN 32 µM
  checkerboard plate reading, Average values: 0.5963
[6]; Ciprofloxacin 6.25 nM + PMBN 0 µM
  checkerboard plate reading, Average values: 0.8608
[6]; Ciprofloxacin 6.25 nM + PMBN 0.5 µM
  checkerboard plate reading, Average values: 0.801
[6]; Ciprofloxacin 6.25 nM + PMBN 1 µM
  checkerboard plate reading, Average values: 0.7994
[6]; Ciprofloxacin 6.25 nM + PMBN 2 µM
  checkerboard plate reading, Average values: 0.8003
[6]; Ciprofloxacin 6.25 nM + PMBN 4 µM
  checkerboard plate reading, Average values: 0.7289
[6]; Ciprofloxacin 6.25 nM + PMBN 8 µM
  checkerboard plate reading, Average values: 0.6534
[6]; Ciprofloxacin 6.25 nM + PMBN 16 µM
  checkerboard plate reading, Average values: 0.5862
[6]; Ciprofloxacin 6.25 nM + PMBN 32 µM
  checkerboard plate reading, Average values: 0.4866
[6]; Ciprofloxacin 12.5 nM + PMBN 0 µM
  checkerboard plate reading, Average values: 0.8404
[6]; Ciprofloxacin 12.5 nM + PMBN 0.5 µM
  checkerboard plate reading, Average values: 0.7355
[6]; Ciprofloxacin 12.5 nM + PMBN 1 µM
  checkerboard plate reading, Average values: 0.7301
[6]; Ciprofloxacin 12.5 nM + PMBN 2 µM
  checkerboard plate reading, Average values: 0.723
[6]; Ciprofloxacin 12.5 nM + PMBN 4 µM
  checkerboard plate reading, Average values: 0.67
[6]; Ciprofloxacin 12.5 nM + PMBN 8 µM
  checkerboard plate reading, Average values: 0.5682
[6]; Ciprofloxacin 12.5 nM + PMBN 16 µM
  checkerboard plate reading, Average values: 0.6754
[6]; Ciprofloxacin 12.5 nM + PMBN 32 µM
  checkerboard plate reading, Average values: 0.5017
[6]; Ciprofloxacin 25 nM + PMBN 0 µM
  checkerboard plate reading, Average values: 0.4892
[6]; Ciprofloxacin 25 nM + PMBN 0.5 µM
  checkerboard plate reading, Average values: 0.5201
[6]; Ciprofloxacin 25 nM + PMBN 1 µM
  checkerboard plate reading, Average values: 0.4961
[6]; Ciprofloxacin 25 nM + PMBN 2 µM
  checkerboard plate reading, Average values: 0.4386
[6]; Ciprofloxacin 25 nM + PMBN 4 µM
  checkerboard plate reading, Average values: 0.4173
[6]; Ciprofloxacin 25 nM + PMBN 8 µM
  checkerboard plate reading, Average values: 0.2541
[6]; Ciprofloxacin 25 nM + PMBN 16 µM
  checkerboard plate reading, Average values: 0.196
[6]; Ciprofloxacin 25 nM + PMBN 32 µM
  checkerboard plate reading, Average values: 0.2103
[6]; Ciprofloxacin 50 nM + PMBN 0 µM
  checkerboard plate reading, Average values: 0.1991
[6]; Ciprofloxacin 50 nM + PMBN 0.5 µM
  checkerboard plate reading, Average values: 0.2079
[6]; Ciprofloxacin 50 nM + PMBN 1 µM
  checkerboard plate reading, Average values: 0.2136
[6]; Ciprofloxacin 50 nM + PMBN 2 µM
  checkerboard plate reading, Average values: 0.1771
[6]; Ciprofloxacin 50 nM + PMBN 4 µM
  checkerboard plate reading, Average values: 0.1678
[6]; Ciprofloxacin 50 nM + PMBN 8 µM
  checkerboard plate reading, Average values: 0.1671
[6]; Ciprofloxacin 50 nM + PMBN 16 µM
  checkerboard plate reading, Average values: 0.1685
[6]; Ciprofloxacin 50 nM + PMBN 32 µM
  checkerboard plate reading, Average values: 0.1738
[6]; Escherichia coli, W3110
  MIC: 0.05 µM
[6]; LPS disruption (pharmacological)
  MIC E. coli + 8 μM PMBN: 0.024 µM
[6]; checkerboard
  synergy with PMBN: does not have an effect and none
[6]; checkerboard with PMBN, E. coli W3110
  MSC: 0.025 µM
